{
  "source": "patent US20140213446A1",
  "about": "“HERBICIDAL COMPOSITIONS AND METHODS USING COMBINATIONS OF 4-AMINO-3-CHLORO-6-(4-CHLORO-2-FLUORO-3-METHOXYPHENYL)PYRIDINE-2-CARBOXYLIC ACID OR A DERIVATIVE THEREOF AND AN ARYLOXYPHENOXY PROPIONATE ACCASE INHIBITOR HERBICIDE” (DOW AGROSCIENCES LLC, priority 2013, published 2014)",
  "experiment_in_all_cases": "Postemergence foliar-applied herbicidal mixtures, weeds common to row crops",
  "format_in_all_cases": "in vivo",
  "key": {"[1]": {"tested_on": "SORHA Sorghum halepense (L.) Pers. (Johnsongrass)", "settings": "Quizalofop-P-ethyl 7.125 g ae/ha", "source_text": "(§1) Evaluation of Postemergence Foliar-Applied Herbicidal Mixtures for Control of Weeds Common to Row Crops such as Corn and Soybeans. Seeds or nutlets of the desired test plant species were planted in a soil matrix prepared by mixing a loam or sandy loam soil (e.g., 28.6 percent silt, 18.8 percent clay, and 52.6 percent sand, with a pH of about 5.8 and an organic matter content of about 1.8 percent) and calcareous grit in an 80 to 20 ratio. The soil matrix was contained in plastic pots with a surface area of 84.6 cm^2 and a volume of 560 cubic centimeters (cm^3). When required to ensure good germination and healthy plants, a fungicide treatment and/or other chemical or physical treatment was applied. The plants were grown for 7-31 d in a greenhouse with an approximate 15 h photoperiod which was maintained at about 23-29° C. during the day and 22-28° C. during the night. Nutrients (Peters Excel® 15-5-15 5-Ca 2-Mg) and water were added on a regular basis and supplemental lighting was provided with overhead metal halide 1000-Watt lamps as necessary. The plants were employed for testing when they reached the first, second, or third true leaf stage.\n(§2) Treatment requirements were calculated based upon the rates being tested, the concentration of active ingredient or acid equivalent in the formulation, and a 12 mL application volume at a rate of 187 L/ha.\n(§3) Treatments consisted of the potassium (K^+) salt of 4-amino-3-chloro-6-(4-chloro-2-fluoro-3-methoxyphenyl)-pyridine-2-carboxylic acid (Cmpd 4) formulated as a soluble liquid (SL), the propargyl ester of 4-amino-3-chloro-6-(4-chloro-2-fluoro-3-methoxyphenyl)-pyridine-2-carboxylic acid (Cmpd 2) as technical grade material, or the benzyl ester of 4-amino-3-chloro-6-(4-chloro-2-fluoro-3-methoxyphenyl)-pyridine-2-carboxylic acid (Cmpd 3) as technical grade material and quizalofop-p-ethyl (Assure® II) alone and in combination. Forms of compound of formula (I) and quizalofop-P-ethyl were applied on an acid equivalent basis.\n(§4) For treatments comprised of formulated compounds, measured amounts of compounds were placed individually in 25 mL glass vials and diluted in a volume of 1.5% (v/v) Agri-Dex® crop oil concentrated to obtain 6× stock solutions. […] Application solutions were prepared by adding an appropriate amount of each stock solution (typically 2 mL) and diluted to the appropriate final concentrations with the addition of an appropriate amount of an aqueous mixture of 1.5% (v/v) crop oil concentrate and water so that the final spray solutions contained 1.25+/−0.05% (v/v) crop oil concentrate.\n(§5) For treatments comprised of formulated and technical compounds, weighed amounts of the technical materials were placed individually in 25 mL glass vials and dissolved in a volume of 97:3 v/v acetone/DMSO to obtain 6× stock solutions, and measured amounts of the formulated compounds were placed individually in 25 mL glass vials and diluted in a volume of 1.5% (v/v) crop oil concentrate or water to obtain 6× stock solutions. […] Application solutions were prepared by adding an appropriate amount of each stock solution (e.g., 2 mL) and diluted to the appropriate final concentrations with the addition of an appropriate amount of an aqueous mixture of 1.5% (v/v) crop oil concentrate and water so that the final spray solutions contained 1.25% (v/v) crop oil concentrate. When required, additional water and/or 97:3 v/v acetone/DMSO can be added to individual application solutions so that the final acetone and DMSO concentrations of the application solutions being compared are 16.2% and 0.5%, respectively.\n(§6) All stock solutions and applications solutions were visually inspected for compound compatibility prior to application. Compound requirements are based upon a 12 mL application volume at a rate of 187 liters per hectare (L/ha). […]"}, "[2]": {"tested_on": "LOLMU Lolium multiflorum Lam. (Italian ryegrass)", "settings": "Quizalofop-P-ethyl 3.56 g ae/ha", "source_text": "as §1, §2, §3, §4, §5, §6"}, "[3]": {"tested_on": "DIGSA Digitaria sanguinalis (L.) Scop. (large crabgrass)", "settings": "Quizalofop-P-ethyl 3.56 g ae/ha", "source_text": "as §1, §2, §3, §4, §5, §6"}, "[4]": {"tested_on": "AVEFA Avena fatua L. (wild oat)", "source_text": "as §1, §2, §3, §4, §5, §6"}, "[5]": {"tested_on": "OEOBI Oenothera biennis (evening primrose)", "source_text": "as §1, §2, §3, §4, §5, §6"}, "[6]": {"settings": "Quizalofop-P-ethyl 7.125 g ae/ha"}, "[7]": {"settings": "Quizalofop-P-ethyl 14.25 g ae/ha"}},
  "data": [
    {"compound": "CCOC(=O)[C@@H](C)Oc1ccc(Oc2cnc3cc(Cl)ccc3n2)cc1", "note": "[Quizalofop-P-ethyl, quizalofop-P-ethyl]", "values": [
      {"measurement": "Percent (%) injury rated visually 14 DAA Obs", "setting": "[1]", "value": 50, "unit": "%"},
      {"measurement": "Percent (%) injury rated visually 14 DAA Obs", "setting": "[2]", "value": 0, "unit": "%"},
      {"measurement": "Percent (%) injury rated visually 14 DAA Obs", "setting": "[3]", "value": 20, "unit": "%"},
      {"measurement": "Percent (%) injury rated visually 14 DAA Obs", "setting": "[4]; Quizalofop-P-ethyl 3.56 g ae/ha", "value": 15, "unit": "%"},
      {"measurement": "Percent (%) injury rated visually 14 DAA Obs", "setting": "[4]; [6]", "value": 15, "unit": "%"},
      {"measurement": "Percent (%) injury rated visually 14 DAA Obs", "setting": "[4]; [7]", "value": 40, "unit": "%"},
      {"measurement": "Percent (%) injury rated visually 14 DAA Obs", "setting": "[5]; [6]", "value": 0, "unit": "%"},
      {"measurement": "Percent (%) injury rated visually 14 DAA Obs", "setting": "[5]; [7]", "value": 0, "unit": "%"},
      {"measurement": "Percent (%) injury rated visually 14 DAA Obs", "setting": "[5]; Quizalofop-P-ethyl 28.5 g ae/ha", "value": 0, "unit": "%"}
    ]}
  ]
}
